One test deals with PrP-AP. It is filed as binding.
The target of test [1] is PrP cell surface receptor on COS-7 cells (ATCC CRL-1651).
For test [2], the target named is PrP cell surface receptor on H4 cells (ATCC HTB-148).

This is an account of results in patent US20030114360A1 (priority 2000, published 2003).

For the compound `OC[C@@H](O)[C@@H](O)[C@H](O)[C@H](O)CO` [mannitol], the “inhibition of PrP-AP binding to cell surfaces” value with PrP-AP is listed as “does not participate in the inhibition of binding”.

As to Copaxone, the IC50 in test [1] and in test [2] was 500 nM throughout. GGSRYPGQGSP [control 11 mer]: the “inhibition of PrP-AP binding to cell surfaces by peptide” value with PrP-AP is listed as “Only the peptide with the PrP amino terminal sequence inhibited”.

Consider KKRPKPGGWNT [N-term 11 mer], for which the “inhibition of PrP-AP binding to cell surfaces by peptide” value in the test on PrP-AP is “inhibited”.
